Where two headings read alike, the source gives them in different places.
Target: T1, SIRT1 (Homo sapiens, UniProt Q96EB6)
T1 sequence (Q96EB6 1-747): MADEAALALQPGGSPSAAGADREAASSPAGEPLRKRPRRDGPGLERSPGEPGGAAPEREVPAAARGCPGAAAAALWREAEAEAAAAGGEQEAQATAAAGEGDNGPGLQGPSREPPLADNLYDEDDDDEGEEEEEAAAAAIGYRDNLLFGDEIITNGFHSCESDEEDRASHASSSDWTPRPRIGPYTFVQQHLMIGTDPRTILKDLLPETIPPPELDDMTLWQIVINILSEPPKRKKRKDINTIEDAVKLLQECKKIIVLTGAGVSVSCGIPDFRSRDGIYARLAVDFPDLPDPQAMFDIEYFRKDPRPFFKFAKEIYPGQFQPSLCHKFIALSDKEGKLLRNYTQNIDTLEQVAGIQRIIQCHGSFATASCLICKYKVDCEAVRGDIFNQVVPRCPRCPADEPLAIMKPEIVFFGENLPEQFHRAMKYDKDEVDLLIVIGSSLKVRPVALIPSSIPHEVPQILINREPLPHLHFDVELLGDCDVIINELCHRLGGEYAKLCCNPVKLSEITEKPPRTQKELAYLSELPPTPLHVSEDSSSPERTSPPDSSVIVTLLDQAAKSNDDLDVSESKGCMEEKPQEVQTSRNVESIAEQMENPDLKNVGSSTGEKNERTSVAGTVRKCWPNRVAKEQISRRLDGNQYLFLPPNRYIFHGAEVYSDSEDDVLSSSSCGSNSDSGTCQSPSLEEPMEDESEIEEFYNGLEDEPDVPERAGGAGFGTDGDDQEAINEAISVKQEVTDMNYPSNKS
Test: Trp mass spectrometry assay (SIRT1 activation)
Type: biochemical
Conditions: for Emax: percent maximum fold activation of SIRT1, read-out: Tryp % Fold Act
Procedure, shortened: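 N-His-tagged SIRT1 (10 nM), expressed in E. coli, was incubated with 0.5 μM Ac-RHKK(Ac)W-NH2 peptide and 120 μM NAD+ for 25 min at 25 °C in HEPES pH 7.5 with […]. The reaction was stopped with formic acid and O-acetyl-ADP-ribose or deacetylated peptide was quantified by mass spectrometry. Results are given as EC1.5 and percent maximal activation relative to DMSO control.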

[1] = Trp mass spectrometry assay, EC1.5 = concentration giving 150% activation of SIRT1
[2] = Trp mass spectrometry assay, EC1.5 = concentration of test compound that results in 150% activation of SIRT1
[3] = concentration of test compound that results in 150% activation of SIRT1, Trp peptide substrate

Row | Compound | Tryp AVG EC1.5 (μM) [1] | Emax (Trp mass spectrometry assay) [%] | Tryp AVG EC1.5 (μM) [2] | Tryp AVG EC1.5 (μM) [3] | Emax (Trp peptide substrate) [%]
1 | O=C(Nc1ccccn1)N1c2nc(-c3cccc(C(F)(F)F)c3)ccc2N2CC[C@@H]1C2 [Example 823] | A (EC1.5<1 μM) | ≥ 150 | – | – | –
2 | CN(C)c1cccc(-c2ccc3c(n2)N(C(=O)Nc2cnccn2)[C@H]2CCCN3C2)c1 [Example 403] | – | – | – | A (EC1.5<1 μM) | ≥ 150
3 | O=C(Nc1cccc(C2=CCOCC2)n1)N1c2nc(-c3cccc(C(F)(F)F)c3)ccc2N2CC[C@H]1C2 [Example 658] | A (EC1.5<1 μM) | ≥ 150 | – | – | –
4 | O=C(Nc1cnccn1)N1c2nc(N3CCCC(C(F)(F)F)C3)ccc2N2CCC[C@H]1C2 (stereo partly drawn) [Example 293] | – | – | – | A (EC1.5<1 μM) | ≥ 150
5 | O=C(Nc1cncc(F)c1)N1c2nc(-c3cccc(Cl)c3)ccc2N2CCC1CC2 [Example 521] | – | – | – | B (EC1.5 1-25 μM) | ≥ 150
6 | Cc1cc(-c2ccc3c(n2)N(C(=O)Nc2nc(C)c(C)s2)[C@H]2CCN3C2)ccn1 [Example 481] | – | – | – | A (EC1.5<1 μM) | ≥ 150
7 | COc1cc(NC(=O)N2c3nc(-c4cncc(C(F)(F)F)c4)ccc3N3CCC[C@H]2C3)ncn1 [Example 394] | – | – | – | A (EC1.5<1 μM) | ≥ 150
8 | CC(=O)N1CCC(c2cccc(NC(=O)N3c4nc(-c5cccc(C(F)(F)F)c5)ccc4N4CC[C@H]3C4)c2)C1 (stereo partly drawn) [Example 635] | A (EC1.5<1 μM) | ≥ 150 | – | – | –
9 | COc1cc(NC(=O)N2c3nc(-c4cccc(N(C)C)c4)ccc3N3CCC[C@H]2C3)ncn1 [Example 385] | – | – | – | A (EC1.5<1 μM) | ≥ 150
10 | O=C(Nc1cccnn1)N1c2nc(-c3cncc(C(F)(F)F)c3)ccc2N2C[C@@H](O)[C@H]1C2 [Example 701] | B (EC1.5 1-25 μM) | ≥ 150 | – | – | –
11 | CCCC(=O)c1cccc(NC(=O)N2c3nc(-c4cccc(C(F)(F)F)c4)ccc3N3CC[C@H]2C3)c1 [Example 736] | A (EC1.5<1 μM) | ≥ 150 | – | – | –
12 | O=C(Nc1cccc(-c2cccnc2)n1)N1c2nc(-c3cccc(C(F)(F)F)c3)ccc2N2CC[C@H]1C2 [Example 655] | A (EC1.5<1 μM) | ≥ 150 | – | – | –
13 | Cc1ccncc1-c1ccc2c(n1)N(C(=O)Nc1nc(C)c(C)s1)[C@H]1CCCN2C1 [Example 508] | – | – | – | C (EC1.5>25 μM) | ≥ 150
14 | Cc1cc(-c2ccc3c(n2)N(C(=O)Nc2ccc(F)cn2)[C@H]2CCN3C2)ccn1 [Example 223] | – | – | – | A (EC1.5<1 μM) | ≥ 150
15 | O=C(Nc1cccc(OC[C@H](O)CO)n1)N1c2nc(-c3cccc(C(F)(F)F)c3)ccc2N2CC[C@H]1C2 [Example 818] | A (EC1.5<1 μM) | ≥ 150 | – | – | –
16 | O=C(CCCCCNC(=O)c1ccc2c(c1)C(=O)OC21c2ccc(O)cc2Oc2cc(O)ccc21)NCc1ncc(-c2cccc(NC(=O)N3c4nc(-c5cccc(C(F)(F)F)c5)ccc4N4CC[C@H]3C4)c2)o1 [Example 708] | A (EC1.5<1 μM) | ≥ 150 | – | – | –

Results, then the molecule that gave them:

Row | Tryp AVG EC1.5 (μM) [1] | Emax (Trp mass spectrometry assay) [%] | Tryp AVG EC1.5 (μM) [2] | Tryp AVG EC1.5 (μM) [3] | Emax (Trp peptide substrate) [%] | Compound
17 | – | ≥ 150 | A (EC1.5<1 μM) | – | – | COc1cc(NC(=O)N2c3nc(-c4cccc(C(F)(F)F)c4)ccc3N3CCC2CC3)ncn1 [Example 168]
18 | – | – | – | A (EC1.5<1 μM) | ≥ 150 | Cc1cncc(-c2ccc3c(n2)N(C(=O)Nc2cccnc2)[C@H]2CCCN3C2)c1 [Example 515]
19 | – | – | – | B (EC1.5 1-25 μM) | ≥ 150 | O=C(Nc1cnccn1)N1c2nc(-c3ccnc(F)c3)ccc2N2CC[C@H]1C2 [Example 284]
20 | – | – | – | A (EC1.5<1 μM) | ≥ 150 | COc1cc(NC(=O)N2c3nc(-c4cccc(C(F)(F)F)c4)ccc3N3CCC[C@@H]2C3)ncn1 [Example 274]
21 | – | – | – | B (EC1.5 1-25 μM) | ≥ 150 | Cc1csc(NC(=O)N2c3nc(N4CCCC(C(F)(F)F)C4)ccc3N3CCC[C@H]2C3)n1 (stereo partly drawn) [Example 297]
22 | – | – | – | A (EC1.5<1 μM) | ≥ 150 | Cn1nccc1-c1cccc(NC(=O)N2c3nc(-c4cccc(C(F)(F)F)c4)ccc3N3CC[C@H]2C3)n1 [Example 623]
23 | – | ≥ 150 | A (EC1.5<1 μM) | – | – | COc1cc(NC(=O)N2c3nc(-c4cccc(C(F)(F)F)c4)ccc3N3CCC2CC3)nc(OC)n1 [Example 170]
24 | – | – | – | B (EC1.5 1-25 μM) | ≥ 150 | Cc1ccc(-c2ccc3c(n2)N(C(=O)Nc2cncc(F)c2)[C@H]2CCN3C2)cn1 [Example 224]

Source: patent US9765075B2, “Substituted bridged urea analogs as sirtuin modulators” (GLAXOSMITHKLINE LLC, priority 2013, dated 2017)
